From patent publication US20250136607A1 (REGOR PHARMACEUTICALS, INC., priority 2021, published 2025) come the findings set out here.

Molecules are shown by their SMILES. pIC50: −log10 of the molar value. Some results are limits rather than exact numbers.

Assay [1] concerns the target Protein arginine deiminase 4 (PAD4) (Homo sapiens, UniProt Q9UM07). As to the kind of experiment: PAD4 ammonia release assay. To be noted: for pIC50: PAD4 ammonia release assay, BAEE substrate, 60 min at RT, read-out: Average IC50 Abs. In kind it is biochemical. The procedure, abridged: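 Ammonia release from BAEE substrate (2× mix 600 μM) was measured after 60 min at RT, following 15 min enzyme–compound preincubation (PAD4 2× 20 nM; pH 8.0 HEPES, 2 mM CaCl2, TCEP; 1.25% DMSO). Detection used OPA/DTT/EDTA for 120 min. % inhibition was taken versus reference-compound and DMSO controls; IC50 by four-parameter logistic fit.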

Assay [2] relates to Citrullinated Histone H3 in dHL-60 cells (differentiated HL-60). In words: dHL-60 Cit-H3 ELISA assay. In kind it is cell-based, human. The note with it: Homo sapiens, HL-60, 3 h, stimulation with 25 μM A23187 for 3 h, read-out: Average IC50 Abs. The protocol: Cell culture: HL-60 cells were grown in IMDM+20% FBS+1% PS. The suspension cells were split into 1:5 with fresh media every 2-3 days to maintain cell density between 1×10^5 to 1×10^6 viable cells/mL. HL-60 cells differentiation: HL-60 cells were diluted to 1×10^5 cells/mL and differentiated into neutrophil-like cells with 100 mM DMF treatment for 72 hours in flask at 37° C., 5% CO2. dHL-60 Cells plating: • 1) HL-60 cells were collected, and the plate was centrifuged at 1000 rpm for 5 min. • 2) The HL-60 cells were diluted to 1.25×10^6 cells/mL and plated into a 96-well plate with 80 μL/well (i.e., 1×10^5/well). The plate was then incubated in the incubator (5% CO2, 37° C.) for 30 min to allow cells to adhere. Compound treatment: • 1) Preparation of compound serial dilution (source plate 500×, final DMSO concentration: 0.2%): briefly, compounds were dissolved in 100% DMSO to a concentration of 20 mM (the stock solution) and a 3-fold serial dilution with 8-point doses was performed. • 2) A 10× compound solution was pipetted up and down; and 10 μL/well of compounds were added into each well and incubated for 30 min. Stimulation with 25 μM A23187: • 1) A solution of A23187 (250 μM) in complete IMDM (IMDM+10% FBS+1% PS) containing 150 U/mL S7 Nuclease was prepared. The obtained solution was added 10 μL/well into each well and incubated for 3 h in the incubator (5% CO2, 37° C.). • 2) The dHL-60 cells treated with 10 μL/well complete IMDM without A23187 worked as negative control. Sample preparation: • 1) EDTA (0.5 M, 2 μL/well) were added to all the wells to stop the reaction. • 2) The plate was centrifuged at 1000 rpm for 5 min to collect supernatant. • 3) The supernatant was then diluted at least 1:2 before adding to the ELISA plate for citrullinated H3 analysis.
The standard was reconstituted with 2 mL of Assay buffer to 500 ng/mL. The reconstituted standard was relatively unstable at 4° C. and should be used within 3 hr after reconstitution.
• 1) 100 μL of the standards or diluted samples were added to the wells on the ELISA plate. • 2) The plate was covered with Cover Sheet and incubated for 2 h at room temperaturert on an orbital shaker.
On the day of the assay, the reagent was thawed at room temperaturert. For one plate, 1.2 mL of HRP Conjugate were diluted into 10.8 mL of assay buffer. A diluted HRP Conjugate was prepared shortly before use.
• 1) The wells were empties and rinsed four times with 1× wash buffer with 300 μL/well (Low speed). The plate was inverted between wash steps to empty the plate. After the last wash, the inverted plate was gently tapped on absorbent paper to remove the residual wash buffer. • 2) 100 μL of the HRP Conjugate working solution were added to each well of the plate. • 3) The plate was covered with cover sheet and incubated for 1 h at RT on an orbital shaker.
• 1) The wells were empties and rinsed four times with 1× wash buffer with 300 μL/well (low speed). The plate was inverted between wash steps to empty the plate. […] 100 uL of HRP STOP solution were added to each well of the plate.
• 1) Wipe the bottom of the plate with a clean tissue to remove fingerprints, dirt, etc. • 2) Read the plate at a wavelength of 450 nm.
The percent (%) inhibition at each concentration of compound was calculated based on and relative to the signal in the HPE and ZPE wells contained within each assay plate. The HPE wells worked as […], and the ZPE wells didn't contain any compound but rather DMSO (final concentration=0.1%) as […]. The concentrations and % inhibition values for tested compounds were plotted and the concentration of compound required for 50% inhibition (IC50) was determined with a Four-parameter logistic dose response equation. The endpoint value (IC50) for the reference peptide/compound was evaluated in each experiment as a quality control measure. If the endpoint value is within 3-fold of the expected value then the experiment is deemed acceptable. […]

Chain of Protein arginine deiminase 4 (PAD4) (Q9UM07 whole entry): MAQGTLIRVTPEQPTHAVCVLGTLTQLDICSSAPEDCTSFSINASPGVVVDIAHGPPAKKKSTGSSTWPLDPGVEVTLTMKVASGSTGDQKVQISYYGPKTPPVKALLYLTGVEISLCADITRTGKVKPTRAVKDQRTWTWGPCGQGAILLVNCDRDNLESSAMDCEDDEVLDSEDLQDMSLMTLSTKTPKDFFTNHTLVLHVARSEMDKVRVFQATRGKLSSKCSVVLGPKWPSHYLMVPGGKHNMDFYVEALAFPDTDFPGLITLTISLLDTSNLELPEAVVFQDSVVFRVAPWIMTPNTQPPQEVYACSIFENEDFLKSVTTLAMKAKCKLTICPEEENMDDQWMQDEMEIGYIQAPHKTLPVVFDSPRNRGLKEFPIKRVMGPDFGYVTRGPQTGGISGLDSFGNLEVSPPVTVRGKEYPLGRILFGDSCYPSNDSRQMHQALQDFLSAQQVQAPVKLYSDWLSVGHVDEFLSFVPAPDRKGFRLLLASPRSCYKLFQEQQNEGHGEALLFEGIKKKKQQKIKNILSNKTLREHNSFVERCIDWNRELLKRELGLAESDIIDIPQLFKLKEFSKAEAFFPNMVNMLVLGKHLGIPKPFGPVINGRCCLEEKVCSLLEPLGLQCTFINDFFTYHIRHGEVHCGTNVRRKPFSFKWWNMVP

Regarding `COc1cc(C(=O)N2C[C@H](N)C[C@@H](F)C2)cc2nc(-c3cc4cccc5c4n3CCN5CCCO)n(Cc3cnn(C)c3)c12` [Example 43, ((3R,5R)-3-amino-5-fluoropiperidin-1-yl)(2-(1-(3-hydroxypropyl)-2,3-dihydro-1H-pyrrolo[1,2,3-de]quinoxalin-5-yl)-7-methoxy-1-((1-methyl-1H-pyrazol-4-yl)methyl)-1H-benzo[d]imidazol-5-yl)methanone], the pIC50 was no less than 7.00 in assay [1] and 5.30 to 6.30 in assay [2].
Taken in the same sequence, the figures for `COc1cc(C(=O)N2CCC[C@@H](N)C2)cc2nc(-c3cc4cccc5c4n3CCN5CCCO)n(Cc3cnn(C)c3)c12` [Example 44, (R)-(3-aminopiperidin-1-yl)(2-(1-(3-hydroxypropyl)-2,3-dihydro-1H-pyrrolo[1,2,3-de]quinoxalin-5-yl)-7-methoxy-1-((1-methyl-1H-pyrazol-4-yl)methyl)-1H-benzo[d]imidazol-5-yl)methanone] were 6.30 to 7.00 and 5.30 to 6.30.
The matching figures for `Cn1cc(Cn2c(-c3cc4cccc5c4n3CCN5CCCO)nc3cc(C(=O)N4C[C@@H](N)C[C@H](F)C4)cc(F)c32)cn1` [Example 46, ((3S,5S)-3-amino-5-fluoropiperidin-1-yl)(7-fluoro-2-(1-(3-hydroxypropyl)-2,3-dihydro-1H-pyrrolo[1,2,3-de]quinoxalin-5-yl)-1-((1-methyl-1H-pyrazol-4-yl)methyl)-1H-benzo[d]imidazol-5-yl)methanone]: no less than 7.00 and 5.30 to 6.30.
With `CCn1cc(Cn2c(-c3cc4cccc5c4n3CCN5CC(F)(F)F)nc3cc(C(=O)N4C[C@H](N)C[C@@H](F)C4)cc(F)c32)cn1` [Example 47, ((3R,5R)-3-amino-5-fluoropiperidin-1-yl)(1-((1-ethyl-1H-pyrazol-4-yl)methyl)-7-fluoro-2-(1-(2,2,2-trifluoroethyl)-2,3-dihydro-1H-pyrrolo[1,2,3-de]quinoxalin-5-yl)-1H-benzo[d]imidazol-5-yl)methanone], the pIC50 was 6.30 to 7.00 in assay [1] and 5.30 to 6.30 in assay [2].
On to `COc1cc(C(=O)N2C[C@H](N)C[C@@H](F)C2)cc2nc(-c3cc4cccc5c4n3CCN5CCCO)n(CC3CCC3)c12` [Example 48, ((3R,5R)-3-amino-5-fluoropiperidin-1-yl)(1-(cyclobutylmethyl)-2-(1-(3-hydroxypropyl)-2,3-dihydro-1H-pyrrolo[1,2,3-de]quinoxalin-5-yl)-7-methoxy-1H-benzo[d]imidazol-5-yl)methanone], for which the pIC50 in assay [1] and in assay [2] was 6.30 to 7.00 in each case.
`C#CCn1c(-c2cc3cccc4c3n2CCN4CCCO)nc2cc(C(=O)N3C[C@H](N)C[C@@H](F)C3)cc(OC)c21` [Example 49, ((3R,5R)-3-amino-5-fluoropiperidin-1-yl)(2-(1-(3-hydroxypropyl)-2,3-dihydro-1H-pyrrolo[1,2,3-de]quinoxalin-5-yl)-7-methoxy-1-(prop-2-yn-1-yl)-1H-benzo[d]imidazol-5-yl)methanone]: the figures for the pIC50 in assay [1] and in assay [2] were 6.30 to 7.00 and 5.30 to 6.30, respectively.
Taken in the same sequence, the figures for `COc1cc(C(=O)N2C[C@H](N)C[C@@H](F)C2)cc2nc(-c3cc4cccc5c4n3CCN5CCCO)n(CC3CC(F)(F)C3)c12` [Example 50, ((3R,5R)-3-amino-5-fluoropiperidin-1-yl)(1-((3,3-difluorocyclobutyl)methyl)-2-(1-(3-hydroxypropyl)-2,3-dihydro-1H-pyrrolo[1,2,3-de]quinoxalin-5-yl)-7-methoxy-1H-benzo[d]imidazol-5-yl)methanone] were no less than 7.00 and 6.30 to 7.00.
Taken in the same sequence, the figures for `COc1cc(C(=O)N2C[C@H](N)C[C@@H](F)C2)cc2nc(-c3cc4cccc5c4n3CCN5CCCO)n(CC3CC3)c12` [Example 59, ((3R,5R)-3-amino-5-fluoropiperidin-1-yl)(1-(cyclopropylmethyl)-2-(1-(3-hydroxypropyl)-2,3-dihydro-1H-pyrrolo[1,2,3-de]quinoxalin-5-yl)-7-methoxy-1H-benzo[d]imidazol-5-yl)methanone] were no less than 7.00 and 5.30 to 6.30.
Take `COc1cc(C(=O)N2C[C@H](N)C[C@@H](F)C2)cc2nc(-c3cc4cccc5c4n3C(C)CN5CCCO)n(C)c12` (stereo partly drawn) [Example 64, ((3R,5R)-3-amino-5-fluoropiperidin-1-yl)(2-(1-(3-hydroxypropyl)-3-methyl-2,3-dihydro-1H-pyrrolo[1,2,3-de]quinoxalin-5-yl)-7-methoxy-1-methyl-1H-benzo[d]imidazol-5-yl)methanone]: the pIC50 in assay [1] and in assay [2] was 6.30 to 7.00 in each case.
Take `CCn1c(-c2cc3cccc4c3n2C(C)CN4CCCO)nc2cc(C(=O)N3C[C@H]4CC[C@@H]3[C@@H]4N)cc(OC)c21` (stereo partly drawn) [Example 68, ((1R,4R,7R)-7-amino-2-azabicyclo[2.2.1]heptan-2-yl)(1-ethyl-2-(1-(3-hydroxypropyl)-3-methyl-2,3-dihydro-1H-pyrrolo[1,2,3-de]quinoxalin-5-yl)-7-methoxy-1H-benzo[d]imidazol-5-yl)methanone]: the pIC50 in assay [1] and in assay [2] was 6.30 to 7.00 each time.
As for `CCC1CN(CCCO)c2cccc3cc(-c4nc5cc(C(=O)N6C[C@H]7CC[C@@H]6[C@@H]7N)cc(F)c5n4C)n1c23` (stereo partly drawn) [Example 69, ((1R,4R,7R)-7-amino-2-azabicyclo[2.2.1]heptan-2-yl)(2-(3-ethyl-1-(3-hydroxypropyl)-2,3-dihydro-1H-pyrrolo[1,2,3-de]quinoxalin-5-yl)-7-fluoro-1-methyl-1H-benzo[d]imidazol-5-yl)methanone], the pIC50 in assay [1] and in assay [2] was no less than 7.00 each time.
As for `CC[C@H]1CN(CCCO)c2cccc3cc(-c4nc5cc(C(=O)N6C[C@H]7CC[C@@H]6[C@@H]7N)cc(F)c5n4C)n1c23` [Example 71, ((1R,4R,7R)-7-amino-2-azabicyclo[2.2.1]heptan-2-yl)(2-((S)-3-ethyl-1-(3-hydroxypropyl)-2,3-dihydro-1H-pyrrolo[1,2,3-de]quinoxalin-5-yl)-7-fluoro-1-methyl-1H-benzo[d]imidazol-5-yl)methanone], the pIC50 in assay [1] and in assay [2] was no less than 7.00 each time. In assay [1] (SFC-separated stereoisomer pairs), the “relative potency of separated isomers in the PAD4 biochemical assay” value was “more potent”.
For the compound `CCC1CNc2cccc3cc(-c4nc5cc(C(=O)N6C[C@H]7CC[C@@H]6[C@@H]7N)cc(F)c5n4C)n1c23` (stereo partly drawn) [Example 72, ((1R,4R,7R)-7-amino-2-azabicyclo[2.2.1]heptan-2-yl)(2-(3-ethyl-2,3-dihydro-1H-pyrrolo[1,2,3-de]quinoxalin-5-yl)-7-fluoro-1-methyl-1H-benzo[d]imidazol-5-yl)methanone], the pIC50 in assay [1] and in assay [2] was 6.30 to 7.00 each time.
